According to publication PMC8333425, “Discovery of a dual Ras and ARF6 inhibitor from a GPCR endocytosis screen” (Nature Communications, 2021):

What was measured:
Assay in all cases: KINOMEscan kinase binding assay
[1] = molecular target: T1, 384 kinases from the human genome (Homo sapiens, UniProt O00329); settings: kinase PIK3CD (Entrez PIK3CD)
T1 construct: purchased Eurofin/DiscoverX
In short: (§1)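 A panel of 384 human kinases was profiled by KINOMEscan binding in the presence of 10 µM compound. Kinase–ligand binding was given as percent of DMSO control, averaged from duplicates in a single run, with an S(10) selectivity score.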

[2] = molecular target: T2, 384 kinases from the human genome (Homo sapiens, UniProt O14578); settings: kinase CIT (Entrez CIT)
T2 construct: purchased Eurofin/DiscoverX
In short: as §1

[3] = molecular target: T3, 384 kinases from the human genome (Homo sapiens, UniProt O96017); settings: kinase CHEK2 (Entrez CHEK2)
T3 construct: purchased Eurofin/DiscoverX
T3 sequence (O96017 whole entry): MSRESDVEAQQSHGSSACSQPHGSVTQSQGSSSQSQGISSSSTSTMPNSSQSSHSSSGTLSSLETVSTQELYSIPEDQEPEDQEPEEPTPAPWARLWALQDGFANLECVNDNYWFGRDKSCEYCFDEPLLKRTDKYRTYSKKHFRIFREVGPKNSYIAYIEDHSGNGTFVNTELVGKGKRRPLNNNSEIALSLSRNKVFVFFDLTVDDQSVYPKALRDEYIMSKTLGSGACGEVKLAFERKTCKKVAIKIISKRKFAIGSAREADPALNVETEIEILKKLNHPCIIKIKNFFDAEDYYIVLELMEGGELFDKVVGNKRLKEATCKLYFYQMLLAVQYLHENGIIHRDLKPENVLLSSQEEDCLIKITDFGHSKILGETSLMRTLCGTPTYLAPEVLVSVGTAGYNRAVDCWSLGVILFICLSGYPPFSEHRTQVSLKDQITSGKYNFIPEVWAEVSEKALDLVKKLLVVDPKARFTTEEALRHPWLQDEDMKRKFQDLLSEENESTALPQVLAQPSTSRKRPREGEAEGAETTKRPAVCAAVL
In short: as §1

[4] = molecular target: T4, 384 kinases from the human genome (Homo sapiens, UniProt P04049); settings: kinase RAF1 (Entrez RAF1)
T4 construct: purchased Eurofin/DiscoverX
In short: as §1

[5] = molecular target: T5, 384 kinases from the human genome (Homo sapiens, UniProt P07332); settings: kinase FES (Entrez FES)
T5 construct: purchased Eurofin/DiscoverX
In short: as §1

[6] = molecular target: T6, 384 kinases from the human genome (Homo sapiens, UniProt P09769); settings: kinase FGR (Entrez FGR)
T6 construct: purchased Eurofin/DiscoverX
In short: as §1

[7] = molecular target: T7, 384 kinases from the human genome (Homo sapiens, UniProt P29323); settings: kinase EPHB2 (Entrez EPHB2)
T7 construct: purchased Eurofin/DiscoverX
In short: as §1

[8] = molecular target: T8, 384 kinases from the human genome (Homo sapiens, UniProt P41240); settings: kinase CSK (Entrez CSK)
T8 construct: purchased Eurofin/DiscoverX
In short: as §1

[9] = molecular target: T9, 384 kinases from the human genome (Homo sapiens, UniProt P42336); settings: kinase PIK3CA (Entrez PIK3CA)
T9 construct: purchased Eurofin/DiscoverX
T9 sequence (P42336 whole entry): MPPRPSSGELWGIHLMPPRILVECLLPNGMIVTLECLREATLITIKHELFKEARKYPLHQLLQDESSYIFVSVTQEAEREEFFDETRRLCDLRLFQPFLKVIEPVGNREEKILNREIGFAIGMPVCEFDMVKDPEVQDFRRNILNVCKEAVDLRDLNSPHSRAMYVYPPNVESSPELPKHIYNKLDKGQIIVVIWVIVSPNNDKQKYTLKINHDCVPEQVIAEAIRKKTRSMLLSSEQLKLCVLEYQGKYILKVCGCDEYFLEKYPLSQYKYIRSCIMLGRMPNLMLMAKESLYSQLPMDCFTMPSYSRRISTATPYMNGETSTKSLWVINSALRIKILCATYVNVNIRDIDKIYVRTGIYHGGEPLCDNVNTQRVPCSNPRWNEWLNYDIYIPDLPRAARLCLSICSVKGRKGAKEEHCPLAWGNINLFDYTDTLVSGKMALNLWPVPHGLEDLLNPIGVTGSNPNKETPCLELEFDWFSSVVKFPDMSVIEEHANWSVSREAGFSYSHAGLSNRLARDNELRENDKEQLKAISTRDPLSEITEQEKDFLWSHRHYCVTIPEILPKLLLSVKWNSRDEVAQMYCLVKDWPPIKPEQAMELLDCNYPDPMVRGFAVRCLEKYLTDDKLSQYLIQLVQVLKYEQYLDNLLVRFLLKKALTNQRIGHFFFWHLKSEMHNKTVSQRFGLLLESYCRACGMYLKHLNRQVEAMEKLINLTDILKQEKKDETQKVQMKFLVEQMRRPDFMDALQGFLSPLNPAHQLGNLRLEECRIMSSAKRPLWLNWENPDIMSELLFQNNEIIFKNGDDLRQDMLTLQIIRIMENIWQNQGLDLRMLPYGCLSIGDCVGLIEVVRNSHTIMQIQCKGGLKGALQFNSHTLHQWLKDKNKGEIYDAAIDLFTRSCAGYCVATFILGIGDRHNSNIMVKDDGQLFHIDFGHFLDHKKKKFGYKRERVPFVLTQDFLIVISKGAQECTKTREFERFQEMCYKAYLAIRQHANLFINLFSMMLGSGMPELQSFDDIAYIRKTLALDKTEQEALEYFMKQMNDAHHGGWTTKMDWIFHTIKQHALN
In short: as §1

[10] = molecular target: T10, 384 kinases from the human genome (Homo sapiens, UniProt P42685); settings: kinase FRK (Entrez FRK)
T10 construct: purchased Eurofin/DiscoverX
In short: as §1

[11] = molecular target: T11, 384 kinases from the human genome (Homo sapiens, UniProt P54756); settings: kinase EPHA5 (Entrez EPHA5)
T11 construct: purchased Eurofin/DiscoverX
In short: as §1

[12] = molecular target: T12, 384 kinases from the human genome (Homo sapiens, UniProt Q12866); settings: kinase MERTK (Entrez MERTK)
T12 construct: purchased Eurofin/DiscoverX
In short: as §1

[13] = molecular target: T13, 384 kinases from the human genome (Homo sapiens, UniProt Q13164); settings: kinase ERK5 (Entrez MAPK7)
T13 construct: purchased Eurofin/DiscoverX
In short: as §1

[14] = molecular target: T14, 384 kinases from the human genome (Homo sapiens, UniProt Q13555); settings: kinase CAMK2G (Entrez CAMK2G)
T14 construct: purchased Eurofin/DiscoverX
T14 sequence (Q13555 whole entry): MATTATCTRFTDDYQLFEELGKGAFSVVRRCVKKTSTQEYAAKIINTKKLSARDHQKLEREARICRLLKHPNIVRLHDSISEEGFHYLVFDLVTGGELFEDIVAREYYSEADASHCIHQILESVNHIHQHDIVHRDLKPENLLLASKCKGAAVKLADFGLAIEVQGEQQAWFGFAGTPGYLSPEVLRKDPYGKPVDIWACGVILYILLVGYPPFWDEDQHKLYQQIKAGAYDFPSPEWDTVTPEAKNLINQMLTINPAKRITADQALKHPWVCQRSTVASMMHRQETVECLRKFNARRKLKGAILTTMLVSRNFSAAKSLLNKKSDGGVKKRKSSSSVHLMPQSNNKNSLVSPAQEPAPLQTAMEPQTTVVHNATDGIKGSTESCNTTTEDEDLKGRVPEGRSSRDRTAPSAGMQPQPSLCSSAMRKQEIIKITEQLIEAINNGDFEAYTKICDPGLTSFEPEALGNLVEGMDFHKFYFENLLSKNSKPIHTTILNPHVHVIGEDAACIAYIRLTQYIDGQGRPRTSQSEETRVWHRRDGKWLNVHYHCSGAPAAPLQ
In short: as §1

[15] = molecular target: T15, 384 kinases from the human genome (Homo sapiens, UniProt Q13873); settings: kinase BMPR2 (Entrez BMPR2)
T15 construct: purchased Eurofin/DiscoverX
In short: as §1

[16] = molecular target: T16, 384 kinases from the human genome (Homo sapiens, UniProt Q15139); settings: kinase PRKD1 (Entrez PRKD1)
T16 construct: purchased Eurofin/DiscoverX
In short: as §1

[17] = molecular target: T17, 384 kinases from the human genome (Homo sapiens, UniProt Q15746); settings: kinase MYLK (Entrez MYLK)
T17 construct: purchased Eurofin/DiscoverX
In short: as §1

[18] = molecular target: T18, 384 kinases from the human genome (Homo sapiens, UniProt Q5S007); settings: kinase LRRK2 (Entrez LRRK2)
T18 construct: purchased Eurofin/DiscoverX
In short: as §1

[19] = molecular target: T19, 384 kinases from the human genome (Homo sapiens, UniProt Q6PHR2); settings: kinase ULK3 (Entrez ULK3)
T19 construct: purchased Eurofin/DiscoverX
T19 sequence (Q6PHR2 whole entry): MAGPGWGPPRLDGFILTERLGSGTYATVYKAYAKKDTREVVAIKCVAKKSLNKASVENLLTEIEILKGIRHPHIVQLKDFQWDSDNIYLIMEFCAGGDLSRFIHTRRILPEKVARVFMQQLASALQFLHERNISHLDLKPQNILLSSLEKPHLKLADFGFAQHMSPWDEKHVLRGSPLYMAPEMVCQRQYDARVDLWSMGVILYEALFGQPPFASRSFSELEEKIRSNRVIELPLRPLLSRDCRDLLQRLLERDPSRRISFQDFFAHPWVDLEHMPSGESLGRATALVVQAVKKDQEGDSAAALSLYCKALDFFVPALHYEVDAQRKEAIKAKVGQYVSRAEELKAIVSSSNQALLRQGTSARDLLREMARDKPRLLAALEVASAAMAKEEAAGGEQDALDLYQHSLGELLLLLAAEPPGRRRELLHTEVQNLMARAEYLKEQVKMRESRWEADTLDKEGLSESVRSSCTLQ
In short: as §1

[20] = molecular target: T20, 384 kinases from the human genome (Homo sapiens, UniProt Q7KZI7); settings: kinase MARK2 (Entrez MARK2)
T20 construct: purchased Eurofin/DiscoverX
In short: as §1

[21] = molecular target: T21, 384 kinases from the human genome (Homo sapiens, UniProt Q86Y07); settings: kinase VRK2 (Entrez VRK2)
T21 construct: purchased Eurofin/DiscoverX
In short: as §1

[22] = molecular target: T22, 384 kinases from the human genome (Homo sapiens, UniProt Q8NEB9); settings: kinase VPS34 (Entrez PIK3C3)
T22 construct: purchased Eurofin/DiscoverX
In short: as §1

[23] = molecular target: T23, 384 kinases from the human genome (Homo sapiens, UniProt Q8WTQ7); settings: kinase GRK7 (Entrez GRK7)
T23 construct: purchased Eurofin/DiscoverX
T23 sequence (Q8WTQ7 whole entry): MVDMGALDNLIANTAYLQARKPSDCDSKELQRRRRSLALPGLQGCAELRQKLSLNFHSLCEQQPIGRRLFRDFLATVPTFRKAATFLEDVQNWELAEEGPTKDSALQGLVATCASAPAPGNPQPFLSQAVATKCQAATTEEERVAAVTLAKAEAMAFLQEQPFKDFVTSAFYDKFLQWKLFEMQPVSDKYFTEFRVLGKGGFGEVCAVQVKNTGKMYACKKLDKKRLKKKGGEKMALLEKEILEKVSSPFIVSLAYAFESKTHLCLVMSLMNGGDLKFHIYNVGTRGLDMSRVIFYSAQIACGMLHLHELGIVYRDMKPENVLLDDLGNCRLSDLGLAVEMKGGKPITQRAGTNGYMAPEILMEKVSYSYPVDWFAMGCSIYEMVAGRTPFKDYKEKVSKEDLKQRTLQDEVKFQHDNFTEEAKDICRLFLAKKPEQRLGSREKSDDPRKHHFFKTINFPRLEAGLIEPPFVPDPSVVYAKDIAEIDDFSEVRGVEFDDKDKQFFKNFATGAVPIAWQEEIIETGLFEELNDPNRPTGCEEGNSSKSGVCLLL
In short: as §1

[24] = molecular target: T24, 384 kinases from the human genome (Homo sapiens, UniProt Q9BRS2); settings: kinase RIOK1 (Entrez RIOK1)
T24 construct: purchased Eurofin/DiscoverX
In short: as §1

[25] = molecular target: T25, 384 kinases from the human genome (Homo sapiens, UniProt Q9H4A3); settings: kinase WNK1 (Entrez WNK1)
T25 construct: purchased Eurofin/DiscoverX
In short: as §1

[26] = molecular target: T26, 384 kinases from the human genome (Homo sapiens, UniProt Q9HAZ1); settings: kinase CLK4 (Entrez CLK4)
T26 construct: purchased Eurofin/DiscoverX
T26 sequence (Q9HAZ1 whole entry): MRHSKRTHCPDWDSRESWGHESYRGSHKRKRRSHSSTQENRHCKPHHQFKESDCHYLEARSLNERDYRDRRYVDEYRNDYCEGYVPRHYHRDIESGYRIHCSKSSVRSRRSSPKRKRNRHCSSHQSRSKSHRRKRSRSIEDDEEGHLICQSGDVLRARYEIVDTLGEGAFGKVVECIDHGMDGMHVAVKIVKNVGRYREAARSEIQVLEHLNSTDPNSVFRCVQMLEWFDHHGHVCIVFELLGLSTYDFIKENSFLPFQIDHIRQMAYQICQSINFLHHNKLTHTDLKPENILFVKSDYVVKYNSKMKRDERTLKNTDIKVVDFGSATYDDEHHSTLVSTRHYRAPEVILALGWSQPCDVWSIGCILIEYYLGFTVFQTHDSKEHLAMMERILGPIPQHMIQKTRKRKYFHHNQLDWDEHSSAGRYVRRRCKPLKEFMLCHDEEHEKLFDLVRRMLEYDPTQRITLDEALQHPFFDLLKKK
In short: as §1

[27] = molecular target: T27, 384 kinases from the human genome (Homo sapiens, UniProt Q9P1W9); settings: kinase PIM2 (Entrez PIM2)
T27 construct: purchased Eurofin/DiscoverX
T27 sequence (Q9P1W9 whole entry): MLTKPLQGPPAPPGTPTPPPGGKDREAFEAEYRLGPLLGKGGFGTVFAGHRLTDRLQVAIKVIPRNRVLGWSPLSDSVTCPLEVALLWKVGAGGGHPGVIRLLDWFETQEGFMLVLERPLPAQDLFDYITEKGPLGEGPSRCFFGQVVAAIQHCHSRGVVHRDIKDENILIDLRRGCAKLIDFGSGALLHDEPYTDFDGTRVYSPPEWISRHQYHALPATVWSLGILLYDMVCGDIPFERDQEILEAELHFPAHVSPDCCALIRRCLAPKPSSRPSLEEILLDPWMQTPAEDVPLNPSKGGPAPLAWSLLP
In short: as §1

T1 sequence (O00329 whole entry): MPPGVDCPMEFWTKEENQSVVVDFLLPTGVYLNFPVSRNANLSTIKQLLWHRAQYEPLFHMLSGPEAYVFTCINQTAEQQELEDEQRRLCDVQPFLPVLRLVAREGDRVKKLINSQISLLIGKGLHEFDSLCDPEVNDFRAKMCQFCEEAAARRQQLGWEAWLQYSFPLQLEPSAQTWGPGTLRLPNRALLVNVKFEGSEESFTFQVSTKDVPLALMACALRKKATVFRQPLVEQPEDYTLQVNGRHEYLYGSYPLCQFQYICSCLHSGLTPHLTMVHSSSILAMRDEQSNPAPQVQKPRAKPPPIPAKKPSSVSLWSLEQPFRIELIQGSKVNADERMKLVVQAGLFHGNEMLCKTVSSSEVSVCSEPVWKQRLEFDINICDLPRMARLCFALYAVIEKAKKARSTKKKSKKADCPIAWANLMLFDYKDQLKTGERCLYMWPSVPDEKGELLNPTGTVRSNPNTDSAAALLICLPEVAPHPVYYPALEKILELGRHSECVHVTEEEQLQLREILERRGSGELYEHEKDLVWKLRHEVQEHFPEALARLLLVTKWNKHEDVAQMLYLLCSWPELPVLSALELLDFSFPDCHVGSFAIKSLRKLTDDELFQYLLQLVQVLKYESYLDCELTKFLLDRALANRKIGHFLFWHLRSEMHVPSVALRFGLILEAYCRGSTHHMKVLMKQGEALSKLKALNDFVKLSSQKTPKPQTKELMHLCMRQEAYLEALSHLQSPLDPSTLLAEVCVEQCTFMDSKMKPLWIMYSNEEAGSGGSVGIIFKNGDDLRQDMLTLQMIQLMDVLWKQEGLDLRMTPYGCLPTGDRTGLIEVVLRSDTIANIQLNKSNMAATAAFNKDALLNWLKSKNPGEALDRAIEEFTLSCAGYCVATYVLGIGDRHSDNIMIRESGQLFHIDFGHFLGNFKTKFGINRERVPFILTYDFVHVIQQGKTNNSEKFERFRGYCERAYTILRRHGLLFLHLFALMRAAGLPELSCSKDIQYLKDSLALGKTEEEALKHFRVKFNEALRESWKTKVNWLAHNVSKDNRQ

Structure (SMILES): CC(C)C(=O)N1CCN(c2ccc(NC(=O)c3cc4ccccc4o3)cc2Cl)CC1 [Compound 21]
- Percent Control [1]: 100%
- Percent Control [2]: 75%
- Percent Control [3]: 100%
- Percent Control [4]: 79%
- Percent Control [5]: 73%
- Percent Control [6]: 73%
- Percent Control [7]: 94%
- Percent Control [8]: 97%
- Percent Control [9]: 100%
- Percent Control [10]: 79%
- Percent Control [11]: 100%
- Percent Control [12]: 70%
- Percent Control [13]: 99%
- Percent Control [14]: 98%
- Percent Control [15]: 88%
- Percent Control [16]: 97%
- Percent Control [17]: 93%
- Percent Control [18]: 89%
- Percent Control [19]: 87%
- Percent Control [20]: 80%
- Percent Control [21]: 88%
- Percent Control [22]: 100%
- Percent Control [23]: 90%
- Percent Control [24]: 100%
- Percent Control [25]: 94%
- Percent Control [26]: 79%
- Percent Control [27]: 100%
